Measured values taken from PubChem BioAssay AID1918949 (Molecular Pharmacology Branch, DTP, NCI, 2023).
pIC50: −log10 of the molar value. Where “and” joins values, the source holds several entries; their conditions need not be identical. Identical values can stand only once.

System: K24384-001-R-PDC complex spheroid viability
Assay: Anticancer human tumor K24384-001-R-PDC patient-derived pancreatic adenocarcinoma cell line growth inhibition
Details: for viability, T/C: stronger effect = lower value
Method in brief: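 Drug combinations with the LSD1 inhibitor iadademstat tested on tumor cells co-cultured as spheroids with endothelial cells and mesenchymal stem cells. Concentrations descended in half-log increments from clinical Cmax or 10 microM.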

[1] = curve of first compound, second compound 0.1 µM
[2] = curve of first compound, second compound 0.316 µM
[3] = curve of first compound, second compound 1 µM
[4] = curve of first compound, second compound 3.16 µM
[5] = curve of first compound, second compound 10 µM
[6] = second compound 0.1 µM, first compound 0.00949 µM
[7] = second compound 0.1 µM, first compound 0.03 µM
[8] = second compound 0.1 µM, first compound 0.0949 µM
[9] = second compound 0.1 µM, first compound 0.3 µM
[10] = second compound 0.316 µM, first compound 0.00949 µM
[11] = second compound 0.316 µM, first compound 0.03 µM
[12] = second compound 0.316 µM, first compound 0.0949 µM
[13] = second compound 0.316 µM, first compound 0.3 µM
[14] = second compound 1 µM, first compound 0.00949 µM
[15] = second compound 1 µM, first compound 0.03 µM
[16] = second compound 1 µM, first compound 0.0949 µM
[17] = second compound 1 µM, first compound 0.3 µM
[18] = second compound 3.16 µM, first compound 0.00949 µM
[19] = second compound 3.16 µM, first compound 0.03 µM
[20] = second compound 3.16 µM, first compound 0.0949 µM
[21] = second compound 3.16 µM, first compound 0.3 µM
[22] = second compound 10 µM, first compound 0.00949 µM
[23] = second compound 10 µM, first compound 0.03 µM
[24] = second compound 10 µM, first compound 0.0949 µM
[25] = second compound 10 µM, first compound 0.3 µM
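Also: spheroids exposed to agents for seven days before luminescence viability reading.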
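For viability, T/C in this document: 100% = DMSO vehicle control viability.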

| Structure (SMILES) | pIC50 [1] | pIC50 [2] | pIC50 [3] | pIC50 [4] | pIC50 [5] | viability, T/C [6] [%] | viability, T/C [7] [%] | viability, T/C [8] [%] | viability, T/C [9] [%] | viability, T/C [10] [%] | viability, T/C [11] [%] | viability, T/C [12] [%] | viability, T/C [13] [%] | viability, T/C [14] [%] | viability, T/C [15] [%] | viability, T/C [16] [%] | viability, T/C [17] [%] | viability, T/C [18] [%] | viability, T/C [19] [%] | viability, T/C [20] [%] | also measured |
| --- | --- | --- | --- | --- | --- | --- | --- | --- | --- | --- | --- | --- | --- | --- | --- | --- | --- | --- | --- | --- | --- |
| CCN(c1cc(-c2ccc(CN3CCOCC3)cc2)cc(C(=O)NCc2c(C)cc(C)[nH]c2=O)c1C)C1CCOCC1 + NC1CCC(NC2CC2c2ccccc2)CC1 | < 5.52 | < 5.52 | < 5.52 | < 5.52 | < 5.52 | 96 | 80.3 | 80.6 | 107 | 96.7 | 92.1 | 94.7 | 92.1 | 98.4 | 84.3 | 103 | 83.7 | 81.3 | 104 | 91.6 | viability, T/C (second compound 0.1 µM, first compound 0.949 µM): 86.5%; viability, T/C (second compound 0.1 µM, first compound 3 µM): 57.5%; viability, T/C (second compound 0.316 µM, first compound 0.949 µM): 93.7%; viability, T/C (second compound 0.316 µM, first compound 3 µM): 71.1%; viability, T/C (second compound 1 µM, first compound 0.949 µM): 82.2%; viability, T/C (second compound 1 µM, first compound 3 µM): 62.9%; viability, T/C [21]: 79.1%; viability, T/C (second compound 3.16 µM, first compound 0.949 µM): 73%; viability, T/C (second compound 3.16 µM, first compound 3 µM): 70.2%; viability, T/C [22]: 80.3%; viability, T/C [23]: 82.7%; viability, T/C [24]: 98.8%; viability, T/C [25]: 73.7%; viability, T/C (second compound 10 µM, first compound 0.949 µM): 79.1%; viability, T/C (second compound 10 µM, first compound 3 µM): 70.5% |
| Cn1ncnc1C1c2n[nH]c(=O)c3cc(F)cc(c23)NC1c1ccc(F)cc1 (configuration not stated) |  |  |  |  |  |  |  |  |  |  |  |  |  |  |  |  |  |  |  |  | viability, T/C (compound 0.000316 µM): 108% and 99.6%; viability, T/C (compound 0.001 µM): 105% and 115%; viability, T/C (compound 0.00316 µM): 87.1% and 102%; viability, T/C (compound 0.01 µM): 93.5% and 95%; viability, T/C (compound 0.0316 µM): 90.6% and 95.1%; viability, T/C (compound 0.1 µM): 80.4% and 76.9%; pIC50 (curve of compound): < 7.00 |
| CCc1c2c(nc3ccc(O)cc13)-c1cc3c(c(=O)n1C2)COC(=O)[C@]3(O)CC + NC1CCC(NC2CC2c2ccccc2)CC1 | > 9.02 | > 9.02 | > 9.02 | > 9.02 | > 9.02 | 30.9 | 8.66 | 5.82 | 4.86 | 35 | 10.1 | 4.59 | 4.24 | 31.5 | 9.09 | 5.26 | 4.62 | 33.2 | 9.39 | 4.03 | viability, T/C (second compound 0.1 µM, first compound 0.000949 µM): 46.4%; viability, T/C (second compound 0.1 µM, first compound 0.003 µM): 36.2%; viability, T/C (second compound 0.316 µM, first compound 0.000949 µM): 46.2%; viability, T/C (second compound 0.316 µM, first compound 0.003 µM): 43.4%; viability, T/C (second compound 1 µM, first compound 0.000949 µM): 41.5%; viability, T/C (second compound 1 µM, first compound 0.003 µM): 39%; viability, T/C (second compound 3.16 µM, first compound 0.000949 µM): 47.4%; viability, T/C (second compound 3.16 µM, first compound 0.003 µM): 43%; viability, T/C [21]: 4.04%; viability, T/C (second compound 10 µM, first compound 0.000949 µM): 45%; viability, T/C (second compound 10 µM, first compound 0.003 µM): 38.1%; viability, T/C [22]: 26.3%; viability, T/C [23]: 9.03%; viability, T/C [24]: 3.67%; viability, T/C [25]: 3.1% |
